US20130053430A1, “MODULATION OF CETP EXPRESSION” (Isis Pharmaceuticals, Inc., priority 2010, published 2013)
e = 2'-O-(2-methoxyethyl) (MOE); d = 2'-deoxy (DNA)

Columns and labels:
human CETP mRNA [1] = test: Antisense inhibition of human CETP mRNA in SW872 liposarcoma cells (Example 1); assay type: cell-based; details: 150 nM antisense oligonucleotide, lipofectin, ~24 hours, relative to untreated control cells
Outline: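 SW872 cells transfected (lipofectin) with 150 nM 5-10-5 MOE gapmer (phosphorothioate, 5-methylcytosine). After about 24 h, CETP mRNA measured by qRT-PCR, normalized to GAPDH; values are % inhibition versus untreated cells.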

CETP protein = test: Plasma CETP protein by ELISA in huCETP transgenic mice (Example 5); assay type: in vivo, human; details: normal chow, 50 mg/kg i.p. twice per week for 6 weeks, compared to PBS control
Description: (§1) The mice were divided into five treatment groups. The first four groups received intraperitoneal injections of ISIS 349511, ISIS 349512, ISIS 349515, or ISIS 349517 at a dose of 50 mg/kg twice per week for 6 weeks. The fifth group received intraperitoneal injections of saline twice weekly for 6 weeks.
Plasma levels of CETP protein were measured by ELISA (Alpco, N.H.). […] The results are expressed as percentage inhibition compared to the PBS control.

human CETP mRNA [2] = test: Antisense inhibition of human CETP mRNA in primary hepatocytes from huCETP transgenic mice (Example 4); assay type: cell-based, mouse; details: cytofectin, ~24 hours
Outline: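 Primary hepatocytes from human CETP transgenic mice, 17,500 cells/well, transfected by cytofectin with 100 nM or 200 nM antisense oligonucleotide. After about 24 h, CETP mRNA quantified by real-time PCR, normalised to GAPDH, as percent inhibition versus untreated cells.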

[3] = Plasma glucose in huCETP transgenic mice (Example 5); assay type: in vivo; details: 50 mg/kg i.p. twice per week
Description: as §1
Plasma glucose values were determined using a Beckman Glucose Analyzer II (Beckman Coulter) by a glucose oxidase method (Lott, J. A. et al., Clin. Chem. 21: 1754-1760, 1975).

[4] = Body and organ weights of huCETP transgenic mice (Example 5); assay type: in vivo; details: 50 mg/kg i.p. twice per week
Description: as §1
The body weights of the mice were measured pre-dose and regularly during the treatment period. The body weights are presented in Table 10, and are expressed in grams.

human CETP mRNA [5] = test: Liver CETP mRNA in huCETP transgenic mice, normal chow (Example 5); assay type: in vivo; details: 50 mg/kg i.p. twice per week for 6 weeks, relative to PBS control
Description: Male huCETP transgenic mice were maintained on a 12-hour light/dark cycle and fed ad libitum normal Purina mouse chow. Animals were acclimated for at least 7 days in the research facility before initiation of the experiment. Antisense oligonucleotides (ASOs) were prepared in buffered saline (PBS) and sterilized by filtering through a 0.2 micron filter. Oligonucleotides were dissolved in 0.9% PBS for injection.
as §1
Twenty four hours after the final dose, the animals were sacrificed and liver tissue was isolated. Liver RNA was isolated for real-time PCR analysis of CETP. Two primer probe sets, hCETP (forward sequence […], designated herein as SEQ ID NO: 118; reverse sequence […], designated herein as SEQ ID NO: 119; probe sequence TGCGGACCGATGCCCCTGAX, designated herein as SEQ ID NO: 120) and hCETP2_LTS00182 (forward sequence […], designated herein as SEQ ID NO: 38; reverse sequence GGCTCACGCCTTTGCTGTT, designated herein as SEQ ID NO: 39: probe sequence CGGCTCGAGGTAGTGTTTACAGCCCTCX, designated herein as SEQ ID NO: 40), were used. These primer probe sets target the CETP mRNA transcript at different regions. As presented in Table 7, treatment with antisense oligonucleotides reduced CETP mRNA expression. The primer probe sets were used individually and collectively to measure CETP mRNA expression and gave similar results in all three cases. The RNA expression levels were normalized to murine Cyclophilin, a house-keeping gene, which is constitutively expressed. Cyclophilin levels were measured using the primer probe set described in Table 2. The results are expressed as percent inhibition of CETP mRNA, relative to the PBS control.

[6] = Plasma cholesterol and triglyceride levels in huCETP transgenic mice (Example 5); assay type: in vivo; details: 50 mg/kg i.p. twice per week; for HDL / LDL / Total cholesterol / Triglycerides / VLDL: plasma
Description: as §1
Plasma cholesterol were extracted at weeks 3 and 6 by the method of Bligh and Dyer (Bligh, E. G. and Dyer, W. J. Can. J. Biochem. Physiol. 37: 911-917, 1959) and measured with an Olympus clinical analyzer (Hitachi Olympus AU400e, Melville, N.Y.). HDL, LDL and VLDL cholesterol were individually measured by HPLC. Triglyceride levels were measured with the use of a commercially available triglyceride kit (DCL Triglyceride Reagent; Diagnostic Chemicals Ltd.). The results are presented in Tables 13 and 14 and are expressed in mg/dL. There was a significant increase in HDL levels in mice treated with ISIS oligonucleotides.

human CETP mRNA [7] = test: Dose-dependent antisense inhibition of human CETP in SW872 liposarcoma cells (Example 2); assay type: cell-based; details: Lipofectin, ~16 hours (Example 2)
Description: Cells were plated at a density of 50,000 cells per well in a 24-well plate and transfected using Lipofectin reagent with 50 nM, 150 nM, and 300 nM concentrations of each antisense oligonucleotide. After approximately 16 hours, RNA was isolated from the cells and CETP mRNA levels were measured by quantitative real-time PCR. CETP mRNA levels were normalized to total RNA content, as measured by the house-keeping gene, GAPDH mRNA levels. Results are presented in Table 4 as percent inhibition of CETP, relative to untreated control cells.

Substance	% inhibition (human CETP mRNA [1])	Percent inhibition of plasma CETP protein levels (CETP protein)	Percent inhibition of human CETP mRNA (human CETP mRNA [2]; 100 nM)	Percent inhibition of human CETP mRNA (human CETP mRNA [2]; 200 nM)	Glucose levels ([3]; week 3)	Glucose levels ([3]; week 6)	Body weights ([4]; Week 0)	Body weights ([4]; Week 1)	Body weights ([4]; Week 2)	Body weights ([4]; Week 4)	Body weights ([4]; week 6)	Organ weights, Kidney ([4]; week 6)	Organ weights, Liver ([4]; week 6)	Organ weights, Spleen ([4]; week 6)	Percent inhibition of liver CETP mRNA expression, Combined primer probe sets (human CETP mRNA [5])	Percent inhibition of liver CETP mRNA expression, Primer probe set hCETP (human CETP mRNA [5])	Percent inhibition of liver CETP mRNA expression, Primer probe set hCETP2_LTS00182 (human CETP mRNA [5])	Percentage of HDL in total cholesterol ([6]; Week 3)	Percentage of HDL in total cholesterol ([6]; week 6)	HDL ([6]; week 3)	other results
ISIS 349515: 5-10-5 MOE gapmer AACTTCCACCACGCTGGAGG (sugars from the 5' end e5 d10 e5, backbone and methylation of C not given here)	53%	40%	94%	94%	275 mg/dL	237 mg/dL	25 grams	26 grams	27 grams	28 grams	28 grams	349.5 mg	1.7 g	89.3 mg	57%	63%	52%	68%	75%	60 mg/dL	LDL ([6]; week 3): 19 mg/dL; Total cholesterol ([6]; week 3): 89 mg/dL; Triglycerides ([6]; week 3): 83 mg/dL; HDL ([6]; week 6): 66 mg/dL; LDL ([6]; week 6): 18 mg/dL; Total cholesterol ([6]; week 6): 87 mg/dL; Triglycerides ([6]; week 6): 115 mg/dL; VLDL ([6]; week 6): 4 mg/dL
ISIS 349512: 5-10-5 MOE gapmer TTGCCTTCTGCTACAAGCCC (sugars from the 5' end e5 d10 e5, backbone and methylation of C not given here)	92%	76%	86%	96%	267 mg/dL	248 mg/dL	19 grams	21 grams	24 grams	26 grams	28 grams	333.8 mg	2.1 g	86.8 mg	95%	96%	94%	74%	74%	62 mg/dL	percent inhibition of CETP (human CETP mRNA [7]; 50 nM): 86%; percent inhibition of CETP (human CETP mRNA [7]; 150 nM): 98%; percent inhibition of CETP (human CETP mRNA [7]; 300 nM): 97%; LDL ([6]; week 3): 14 mg/dL; Total cholesterol ([6]; week 3): 85 mg/dL; Triglycerides ([6]; week 3): 100 mg/dL; HDL ([6]; week 6): 100 mg/dL; LDL ([6]; week 6): 31 mg/dL; Total cholesterol ([6]; week 6): 134 mg/dL; Triglycerides ([6]; week 6): 92 mg/dL; VLDL ([6]; week 6): 3 mg/dL
